We go through 2 substances from patent publication US20260263617A1, “DARATUMUMAB DRUG CONJUGATES AND PREPARATION THEREOF” (ZYDUS LIFESCIENCES LIMITED, priority 2023, published 2026).

Data set [1] concerns Daudi Burkitt lymphoma xenograft. The data set is described as follows: Efficacy in Burkitt lymphoma xenograft disease model in SCID mice. Conditions: 5 mg/kg, I.V. route, single administration; dosed at mean tumor volume approximately 20-25 mm3; FIG. 4. It is filed as in vivo. The method, then:
In present study, the therapeutic potential of novel Daratumumab-ADC has been evaluated in comparison to Daratumumab antibody only. Specifically to induce Burkitt lymphoma xenograft, Immunodeficient SCID mice were injected with Daudi cells (1 million cells/animal/200 μL volume, In 1:1 ratio of cell suspension & matrigel) in right flank region of animals. […] Here, in this study, Daratumumab-ADC & Daratumumab were compared head to head at a dose level of 5 mg/kg (I.V. route, Single administration).

Data set [2] has as its system Daudi (ATCC CCL-213, B Lymphoblast) cells. The data set is described as follows: In-vitro cytotoxicity assay using Daudi cells (alamar blue). It is filed as cell-based. On the procedure: Daudi (ATCC CCL-213, B Lymphoblast) cells were seeded on a 96 well black clear bottom plate (Costar 3603). The cell line was chosen as it is known to express the CD38 receptor. The cells were treated with different concentrations of daratumumab-MMAE conjugation and Darzalex, incubated in CO2 incubator for 2 hours. After incubation the excess or unbound Daratumumab-MMAE was removed, fresh media was added and incubated for 4 days in 5% CO2 at 37° C. At the end of incubation, alamar blue dye (invitrogen, DAL-1100) was added to the cells and incubated for 5 hours in CO2 incubator.
For orientation: Resazurin is reduced to fluorescent resorufin, in cell work by metabolically active cells.

Like-named read-outs stand apart in the source and are kept apart here.

In the case of “Daratumumab: immunoglobulin G1 kappa (IgG1κ) human monoclonal antibody against CD38 antigen [reference compound]”, the “effect on tumor progression / tumor burden” value in data set [1] is listed as “able to delay the tumor progression in comparison to placebo control group but not able to regress the tumor burden”. Moreover, in data set [2], the “in vitro activity (cytotoxicity, viable cells by alamar blue fluorescence)” value is given as “does not show activity without effector functions”.
Regarding “daratumumab-MMAE conjugate: daratumumab as an antibody, mc-vc-PABC as a linker and MMAE as a toxin or drug or payload; average DAR about 4”, the “effect on tumor progression / tumor burden” value in data set [1] is given as “able to regress the tumor burden”. The “in vitro activity (cytotoxicity, viable cells by alamar blue fluorescence)” value in data set [2] (Daudi cells expressing CD38, 2 hours treatment, unbound removed, 4 days incubation, no effector cells) is recorded as “shows good in vitro activity without the requirement of effector cell mediated killing”. Besides, in data set [2] (Daudi cells, FIG. 3), the “relative in vitro activity compared with Darzalex” value is “better than Darzalex”.
